Results as given in article PMC8536644, “Enigmatic mechanism of the N-vinylpyrrolidone hepatocarcinogenicity in the rat” (Archives of Toxicology, 2021).
Several values for one entry are separate records, joined by “and”; a condition that tells them apart may be missing. Identical values can stand only once.

Legend:
[1] = test system: rat lung cells; assay: Comet assay in presence of FPG, lung; settings: with FPG, 5 days; for TI (%), mean of medians from 2 slides: individual animals
Description: Animals were anesthetized by 3.5% isoflurane (approximately 3 min, evaporator Dräger Vapor 19.3) and then killed by cervical dislocation. The liver was removed and its left lateral lobe used for the Comet assay. The remainder of the liver was washed in saline and then in two aliquots shock frozen in liquid nitrogen and stored at − 80 °C for later examinations. Subsequently the lung was removed from the dead animal. Its left lobe was used for the Comet assay and the remainder treated as described above for the liver. Thereafter the femora were removed for the preparation of the bone marrow.
The Comet assay was performed under alkaline conditions according to the principles described by Singh et al. ([1988]) and Tice et al. ([2000]).
Liver and lung cells were obtained essentially as described by Hartmann et al. ([2004]) and by the Japanese Center for the Validation of Alternative Methods (JaCVAM [2009]). Single cells were obtained within 1 h after killing of the animals in order to minimize DNA damage during the preparation.
The organ parts (see above) were washed in mincing buffer (50 mM EDTA in HBSS [without Ca^2+ and Mg^2+] pH 7.5: DMSO 9:1 (v/v), the latter added shortly before use, stored at 4 °C), cut into 1 to 2-mm pieces in ice-cold mincing buffer and transferred to a cell sieve with 70-µm pores. The viability of the cell suspension was evaluated by the Trypan Blue Assay (Strober [2001]).
100 µL of the obtained cell suspension was mixed at 37 °C with 900 µL Low Melting Agarose (LMA) (0.7% agarose in phosphate-buffered saline [PBS] [Biochrom, Berlin, Germany] without Ca^2+ and Mg^2+). 100 µL of this mixture was transferred to a slide, which had been coated with Normal Melting Agarose (NMA) (0.6% agarose in PBS without Ca^2+ and Mg^2+). The slides were protected with a cover slip and the agarose was hardened at approximately 4 °C. The cover slips were then removed and the slides put over night at 4 °C into lysis buffer (2.5 M NaCl, 125 mM NaOH, 127 mM EDTA, 10 mM Tris/NaOH, pH 10; 1% Triton X-100 and 10% DMSO (v/v), the latter two added before use) in order to lyse the cell membrane, nuclear membrane and remove the histone.
The then following procedures were performed in a shaded room to minimize UV-mediated DNA damage during the procedures.
Those slides which were destined to be treated with the DNA base excision repair enzyme FPG (Sigma Aldrich, Steinheim, Germany) were washed (3 times for 5 min) with FPG buffer (0.04 M HEPES, 0.5 mM EDTA, 0.1 M KCl, pH 8; add shortly before use bovine serum albumin [BSA] to a final concentration of 0.02%). Subsequently 50 µL FPG-enzyme-buffer (prepared shortly prior to use by 30-fold dilution of the following suspension in FPG buffer: 7 µL FPG-enzyme (14 U) and 70 µL glycerol in 623 µL FPG-Puffer, stored at − 80 °C) was pipetted on the slide which was covered with a cover slide and incubated for 30 min at 37 °C while being placed on a humid filter paper. After hardening of the agarose cover slips were removed.
Remaining lysis buffer or FPG buffer was removed by immersing/washing the slides in PBS (without Ca^2+ and Mg^2+).

[2] = test system: CYP 2B/3A; assay: BROD assay, liver microsomes (PXR marker); type: in vivo, rat; settings: male rats
Description: The alkoxyresorufin dealkylase (AROD) assays were based on the method by Burke et al. ([1994]).
The frozen livers and lungs of the NVP-treated male Wistar rats were thawed and washed with isotonic (0.9%) NaCl solution. The tissues were ice-cooled homogenized (1 g tissue: 3 mL 0.25 M saccharose in 1 mM disodium EDTA, pH 7.4) and centrifuged (9000 g, 15 min, 4 °C). The supernatant fraction was centrifuged (100 000 g, 60 min, 4 °C). The resulting supernatant fraction was used for the palmitoyl-CoA-oxidase assay described further down. The pellet was taken up in 150 mM aqueous KCl solution, recentrifuged (100 000 g, 60 min, 4 °C) and the pellet taken up in 1 mL/g liver or 0.5 mL/g lung resuspension buffer (1 mM GSH, 1 mM disodium EDTA, 4 mM MgCl2, 0.1 M KH2PO4, pH 7.5 and 4% glycerol). Aliquots were stored at − 80 °C.
(§1) For determination of the enzyme activities in triplicates, 85 µL master mix (100 mM TrisHCl pH 7.5, 2 mM 5’AMP, 5 mM G-6-P, 10 U G-6-P-DH, 10 mM Dicumarol, 10 mM MgCl2, either 2 µM EROD or 10 µM PROD or 5 µM BROD) was added to 10 µL microsomal fraction (1 mg protein/mL). The reaction was started by the addition of 5 µL 2 mM NADPH (dissolved in 100 mM TrisHCl pH 7.5) followed by incubation at 37 °C for 16 min. The activity was determined by measuring the increase of the fluorescence (excitation at 550 nm, emission at 585 nm) due to resorufin formation compared with resorufin standards, which had been prepared by dissolving tenfold concentrated solutions in DMSO, which were then diluted tenfold in 100 mM TrisHCl pH 7.5.

[3] = test system: CYP 2B/3A; assay: BROD inhibition control in Aroclor 1254-induced rat liver microsomes; type: biochemical; settings: for BROD enzyme activity: 0 µM control 445.1 ± 9.1
Description: as §1
As a method control the described AROD assay was performed with microsomal fractions derived from liver and lung of male Wistar rats which had been treated i.p. for 5 days with aroclor 1254 (500 mg/kg bw). These control assays were performed in presence of 1 μM, 10 μM or 100 μM NVP, respectively, in order to check for potential interactions of NVP with the substrate turnover in the AROD assay.

[4] = test system: rat hepatocytes; design: method as in MAK [1994]; settings: ref MAK [1994]; cited from earlier work
[5] = test system: Klebsiella pneumoniae; settings: ref MAK [1994]; cited from earlier work

For C=CN1CCCC1=O [NVP, N-vinylpyrrolidone], the “Hedgehogs/100 cells (mean ± SD)” value ([1]; female, 5 ppm inhalation) was 3 ± 2 /100 cells, the “TI (%) (mean ± SD)” value ([1]; female, 5 ppm inhalation) was 7.8 ± 1.30% and the “TI (%), mean of medians from 2 slides” value ([1]; female, 5 ppm inhalation) was 8.6% and 7.0% and 6.8% and 10.1% and 7.1% and 7.3%. For the same molecule, the “Hedgehogs/100 cells (mean ± SD)” value ([1]; female, 10 ppm inhalation) was 1 ± 1 /100 cells, the “TI (%) (mean ± SD)” value ([1]; female, 10 ppm inhalation) was 7.2 ± 1.81% and the “TI (%), mean of medians from 2 slides” value ([1]; female, 10 ppm inhalation) was 8.7% and 8.1% and 7.9% and 8.4% and 6.0% and 4.0%. The “Hedgehogs/100 cells (mean ± SD)” value ([1]; female, 20 ppm inhalation) was 3 ± 1 /100 cells, the “TI (%) (mean ± SD)” value ([1]; female, 20 ppm inhalation) was 7.4 ± 2.90% and the “TI (%), mean of medians from 2 slides” value ([1]; female, 20 ppm inhalation) was 6.2% and 8.6% and 10.2% and 2.3% and 7.7% and 9.7%. The “Hedgehogs/100 cells (mean ± SD)” value ([1]; male, 5 ppm inhalation) was 2 ± 2 /100 cells, the “TI (%) (mean ± SD)” value ([1]; male, 5 ppm inhalation) was 6.4 ± 0.69% and the “TI (%), mean of medians from 2 slides” value ([1]; male, 5 ppm inhalation) was 6.1% and 7.5% and 6.6% and 5.5% and 6.5%. For the same molecule, the “Hedgehogs/100 cells (mean ± SD)” value ([1]; male, 10 ppm inhalation) was 4 ± 4 /100 cells, the “TI (%) (mean ± SD)” value ([1]; male, 10 ppm inhalation) was 7.9 ± 3.21% and the “TI (%), mean of medians from 2 slides” value ([1]; male, 10 ppm inhalation) was 12.0% and 3.6% and 6.0% and 7.3% and 7.2% and 11.4%. The “Hedgehogs/100 cells (mean ± SD)” value ([1]; male, 20 ppm inhalation) was 1 ± 1 /100 cells, the “TI (%) (mean ± SD)” value ([1]; male, 20 ppm inhalation) was 3.9 ± 0.72% and the “TI (%), mean of medians from 2 slides” value ([1]; male, 20 ppm inhalation) was 3.8% and 3.5% and 5.2% and 3.6% and 3.3% and 4.2%. The “Liver microsomal BROD activity” value ([2]; 5 ppm) was 54.5 ± 11.3 pmol/min/mg protein, the “Liver microsomal BROD activity” value ([2]; 10 ppm) was 61.7 ± 16 pmol/min/mg protein and the “Liver microsomal BROD activity” value ([2]; 20 ppm) was 42.1 ± 16.5 pmol/min/mg protein. The BROD enzyme activity ([3]; 1 µM NVP) was 470.1 ± 29.7 pmol/min/mg protein, the BROD enzyme activity ([3]; 10 µM NVP) was 445.1 ± 20.9 pmol/min/mg protein and the BROD enzyme activity ([3]; 100 µM NVP) was 456.5 ± 30.9 pmol/min/mg protein. For the same molecule, the “Inhibition of BROD activity” value ([3]; 1, 10 or 100 µM NVP) was “does not lead to inhibition”, the “Unscheduled DNA Synthesis (UDS) test result” value [4] was “negative” and the “Klebsiella pneumoniae fluctuation (point mutation) test result” value [5] was “negative”.
